The test addresses hNav1.7 (Homo sapiens (Human), UniProt Q15858). In words: Tritiated compound binding to membranes from cells expressing hNav1.7 and the β1 subunit, competitive binding (LBA, Ex. 243A). The conditions noted are these: 100 pM [3H]compound, 18 h, room temperature.
[1] abbreviates: read-out: Nav1.7 (LBA) (Ex. 243A).
The mark [2] stands for this setting: read-out: Nav1.7 LBA (Ex. 243A) IC50.

Where a name gives a salt, the structure may show the parent alone. Read-outs that look alike come from different tables or passages of the source.

hNav1.7, sequence (Q15858 whole entry, looked up): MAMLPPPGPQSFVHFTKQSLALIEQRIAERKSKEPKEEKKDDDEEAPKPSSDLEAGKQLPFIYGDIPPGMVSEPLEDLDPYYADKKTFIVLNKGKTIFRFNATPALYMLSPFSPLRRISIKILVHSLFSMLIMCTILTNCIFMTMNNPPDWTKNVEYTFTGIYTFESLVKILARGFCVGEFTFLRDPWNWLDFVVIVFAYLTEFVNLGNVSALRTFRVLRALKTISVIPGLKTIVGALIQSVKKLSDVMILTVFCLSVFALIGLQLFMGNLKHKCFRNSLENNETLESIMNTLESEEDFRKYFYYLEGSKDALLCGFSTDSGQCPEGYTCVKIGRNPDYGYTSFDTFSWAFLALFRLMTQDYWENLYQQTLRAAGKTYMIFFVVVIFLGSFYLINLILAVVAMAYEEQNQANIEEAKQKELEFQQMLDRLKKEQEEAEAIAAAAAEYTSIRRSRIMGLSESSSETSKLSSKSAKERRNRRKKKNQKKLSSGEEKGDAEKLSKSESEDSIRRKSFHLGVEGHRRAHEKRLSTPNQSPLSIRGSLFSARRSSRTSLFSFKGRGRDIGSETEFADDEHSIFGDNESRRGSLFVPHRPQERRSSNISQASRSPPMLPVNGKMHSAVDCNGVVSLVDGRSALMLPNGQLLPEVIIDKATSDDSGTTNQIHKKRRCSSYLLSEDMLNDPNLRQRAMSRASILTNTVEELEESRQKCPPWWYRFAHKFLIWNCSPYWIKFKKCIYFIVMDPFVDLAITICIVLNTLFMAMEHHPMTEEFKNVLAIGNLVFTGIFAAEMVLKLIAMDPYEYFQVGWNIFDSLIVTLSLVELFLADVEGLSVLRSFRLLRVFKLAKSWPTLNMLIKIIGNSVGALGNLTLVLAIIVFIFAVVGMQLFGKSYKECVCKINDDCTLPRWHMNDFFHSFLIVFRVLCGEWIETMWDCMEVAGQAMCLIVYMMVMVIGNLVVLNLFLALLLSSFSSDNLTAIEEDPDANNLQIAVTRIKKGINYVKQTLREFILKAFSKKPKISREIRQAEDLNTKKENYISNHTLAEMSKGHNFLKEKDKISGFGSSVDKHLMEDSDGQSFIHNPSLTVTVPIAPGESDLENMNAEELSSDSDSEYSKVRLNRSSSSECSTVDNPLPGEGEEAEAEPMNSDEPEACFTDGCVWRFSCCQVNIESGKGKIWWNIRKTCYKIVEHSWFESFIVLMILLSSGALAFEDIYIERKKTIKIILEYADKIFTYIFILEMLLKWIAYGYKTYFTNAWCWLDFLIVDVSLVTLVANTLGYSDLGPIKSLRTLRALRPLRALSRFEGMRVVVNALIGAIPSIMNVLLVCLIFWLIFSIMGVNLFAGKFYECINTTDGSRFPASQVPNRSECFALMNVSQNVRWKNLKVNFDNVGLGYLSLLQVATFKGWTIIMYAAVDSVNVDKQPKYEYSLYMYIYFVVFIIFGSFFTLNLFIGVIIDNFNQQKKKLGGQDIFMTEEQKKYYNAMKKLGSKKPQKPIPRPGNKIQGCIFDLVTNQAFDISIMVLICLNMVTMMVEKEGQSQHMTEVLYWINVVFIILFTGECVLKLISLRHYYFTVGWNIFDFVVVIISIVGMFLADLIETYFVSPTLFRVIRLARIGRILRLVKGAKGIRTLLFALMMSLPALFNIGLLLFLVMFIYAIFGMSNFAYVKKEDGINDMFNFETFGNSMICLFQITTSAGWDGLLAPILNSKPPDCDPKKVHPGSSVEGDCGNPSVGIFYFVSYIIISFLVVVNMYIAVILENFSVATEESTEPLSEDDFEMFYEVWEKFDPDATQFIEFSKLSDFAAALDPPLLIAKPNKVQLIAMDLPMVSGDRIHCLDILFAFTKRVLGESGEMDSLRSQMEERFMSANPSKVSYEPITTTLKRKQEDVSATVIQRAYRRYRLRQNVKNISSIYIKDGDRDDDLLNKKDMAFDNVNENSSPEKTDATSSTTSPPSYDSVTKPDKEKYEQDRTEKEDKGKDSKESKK
hNav1.7, sequence (Q07699 whole entry partner, looked up): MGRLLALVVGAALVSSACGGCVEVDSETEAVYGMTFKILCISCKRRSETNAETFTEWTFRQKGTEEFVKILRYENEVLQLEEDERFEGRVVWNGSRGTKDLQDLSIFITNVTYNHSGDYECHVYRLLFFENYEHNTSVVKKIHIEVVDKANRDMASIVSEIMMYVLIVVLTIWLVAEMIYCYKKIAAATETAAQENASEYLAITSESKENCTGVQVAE

With `CCN(CC)[C@H]1CCCC[C@@H]1Nc1cc(F)c(S(=O)(=O)Nc2nccs2)cc1Cl` [Example 17, 5-chloro-4-[[(1S,2S)-2-(diethylamino)cyclohexyl]amino]-2-fluoro-N-thiazol-2-yl-benzenesulfonamide], the IC50 under setting [1] is 237 nM.
Regarding `O=S(=O)(Nc1nccs1)c1cc(Cl)c(N[C@H]2CCCC[C@@H]2N2CC[C@@H](O)C2)cc1F` [Example 68, 5-chloro-2-fluoro-4-(((1S,2S)-2-((R)-3-hydroxypyrrolidin-1-yl)cyclohexyl)amino)-N-(thiazol-2-yl)benzenesulfonamide], the IC50 under setting [2] was found to be 16.6 nM.
Turning to `CN(CCF)[C@H]1CCCC[C@@H]1Nc1cc(F)c(S(=O)(=O)Nc2nccs2)cc1Cl` [Example 37, 5-chloro-2-fluoro-4-(((1S,2S)-2-((2-fluoroethyl)(methyl)amino)cyclohexyl)amino)-N-(thiazol-2-yl)benzenesulfonamide formate], the IC50 under setting [2] came to 2.76 nM.
On to `CC(C)N(C)[C@H]1CCCC[C@@H]1Nc1cc(F)c(S(=O)(=O)Nc2nccs2)cc1Cl` [Example 33, 5-chloro-2-fluoro-4-(((1S,2S)-2-(isopropyl(methyl)amino)cyclohexyl)amino)-N-(thiazol-2-yl)benzenesulfonamide], for which the IC50 under setting [2] is 82.4 nM.
On the same count and under the same terms, the result for `CN[C@H]1CCCC[C@@H]1Nc1cc(F)c(S(=O)(=O)Nc2nccs2)cc1Br` [Example 50, 5-bromo-2-fluoro-4-(((1S,2S)-2-(methylamino)cyclohexyl)amino)-N-(thiazol-2-yl)benzenesulfonamide formate] reads 58.4 nM.
On the same count and under the same terms, the result for `CN(C)[C@H]1CC[C@H](c2cccc(C(F)(F)F)c2)C[C@@H]1Nc1cc(F)c(S(=O)(=O)Nc2nccs2)cc1Cl` [Example 87, 5-chloro-4-(((1S,2S,5S)-2-(dimethylamino)-5-(3-(trifluoromethyl)phenyl)cyclohexyl)amino)-2-fluoro-N-(thiazol-2-yl)benzenesulfonamide] reads 0.539 nM; that for `O=S(=O)(Nc1cccc(F)n1)c1cc(Cl)c(N[C@@H]2CCCC[C@H]2N2CCCC2)cc1F` [Example 98, 5-chloro-2-fluoro-N-(6-fluoropyridin-2-yl)-4-(((1R,2R)-2-(pyrrolidin-1-yl)cyclohexyl)amino)benzenesulfonamide], 3000 nM; that for `O=S(=O)(Nc1cccc(F)n1)c1cc(Cl)c(N[C@H]2CCCC[C@@H]2N2CCCC2)cc1F` [Example 99, 5-chloro-2-fluoro-N-(6-fluoropyridin-2-yl)-4-(((1S,2S)-2-(pyrrolidin-1-yl)cyclohexyl)amino)benzenesulfonamide], 65.5 nM.
Regarding `CN(C)[C@@H]1C[C@@H](C(F)(F)F)CC[C@H]1Nc1cc(F)c(S(=O)(=O)Nc2nccs2)cc1Cl` [Example 81, 5-chloro-4-(((1R,2R,4S)-2-(dimethylamino)-4-(trifluoromethyl)cyclohexyl)amino)-2-fluoro-N-(thiazol-2-yl)benzenesulfonamide], under setting [2], the IC50 came to 1740 nM.
Still for that read-out and setting: the result for `CN(C)[C@H]1CCCC[C@@H]1Nc1ccc(S(=O)(=O)Nc2nccs2)cc1[N+](=O)[O-]` [Example 28, 4-(((1S,2S)-2-(dimethylamino)cyclohexyl)amino)-3-nitro-N-(thiazol-2-yl)benzenesulfonamide] reads 199 nM; that for `CN(CCO)[C@H]1CCCC[C@@H]1Nc1cc(F)c(S(=O)(=O)Nc2cccc(F)n2)cc1Cl` [Example 72, 5-chloro-2-fluoro-N-(6-fluoropyridin-2-yl)-4-(((1S,2S)-2-((2-hydroxyethyl)(methyl)amino)cyclohexyl)amino)benzenesulfonamide], 14.8 nM; that for `CCN[C@H]1CCCC[C@@H]1Oc1cc(F)c(S(=O)(=O)Nc2ccncn2)cc1C1CC1` [Example 96, 5-cyclopropyl-4-(((1S,2S)-2-(ethylamino)cyclohexyl)oxy)-2-fluoro-N-(pyrimidin-4-yl)benzenesulfonamide], 630 nM.
With `CN(C)[C@H]1C[C@H](C(F)(F)F)CC[C@@H]1Nc1cc(F)c(S(=O)(=O)Nc2nccs2)cc1Cl` [Example 77, 5-chloro-4-(((1S,2S,4R)-2-(dimethylamino)-4-(trifluoromethyl)cyclohexyl)amino)-2-fluoro-N-(thiazol-2-yl)benzenesulfonamide], the IC50 under setting [2] came out at 43.2 nM.
On to `CN(C)[C@H]1CCCC[C@@H]1N1CCOc2cc(S(=O)(=O)Nc3nccs3)ccc21` [Example 54, 4-((1 S,2S)-2-(dimethylamino)cyclohexyl)-N-(thiazol-2-yl)-3,4-dihydro-2H-benzo[b][1,4]oxazine-7-sulfonamide], for which the IC50 under setting [2] came to 97.9 nM.
Same read-out and setting: the result for `CN(C[C@@H](O)C(F)(F)F)[C@H]1CCCC[C@@H]1Nc1cc(F)c(S(=O)(=O)Nc2nccs2)cc1Cl` [Example 95, 5-chloro-2-fluoro-4-(((1S,2S)-2-(methyl((R)-3,3,3-trifluoro-2-hydroxypropyl)amino)cyclohexyl)amino)-N-(thiazol-2-yl)benzenesulfonamide] reads 24.3 nM; that for `O=S(=O)(Nc1ccncn1)c1cc(Cl)c(N[C@H]2CCCC[C@@H]2N2CCC(O)C2)cc1F` (stereo partly drawn) [Example 61, 5-chloro-2-fluoro-4-(((1S,2S)-2-(3-hydroxypyrrolidin-1-yl)cyclohexyl)amino)-N-(pyrimidin-4-yl)benzenesulfonamide], 558 nM; that for `CCN(C)[C@H]1CCCC[C@@H]1Nc1cc(F)c(S(=O)(=O)Nc2cccc(F)n2)cc1Cl` [Example 71, 5-chloro-4-(((1S,2S)-2-(ethyl(methyl)amino)cyclohexyl)amino)-2-fluoro-N-(6-fluoropyridin-2-yl)benzenesulfonamide], 41.3 nM.
Turning to `CCN[C@H]1CCCC[C@@H]1Nc1cc(F)c(S(=O)(=O)Nc2nccs2)cc1Cl` [Example 4, 2,2,2-trifluoroacetate], the IC50 under setting [1] amounted to 4.15 nM.
Still for that read-out and setting: the result for `CN(C)[C@@H]1CCCC[C@H]1Oc1cc(F)c(S(=O)(=O)Nc2nccs2)cc1Cl` [Example 8, 5-chloro-4-(((1R,2R)-2-(dimethylamino)cyclohexyl)oxy)-2-fluoro-N-(thiazol-2-yl)benzenesulfonamide] reads 3000 nM.
`CN(C)[C@H]1CCCC[C@@H]1Oc1cc(F)c(S(=O)(=O)Nc2nccs2)cc1C(F)(F)F` [Example 78, 4-(((1S,2S)-2-(dimethylamino)cyclohexyl)oxy)-2-fluoro-N-(thiazol-2-yl)-5-(trifluoromethyl)benzenesulfonamide formate]: under setting [2], the IC50 came out at 95.6 nM.
`CCN[C@H]1CCCC[C@@H]1Nc1cc(F)c(S(=O)(=O)Nc2ccncn2)cc1C1CC1` [Example 100, 5-cyclopropyl-4-(((1S,2S)-2-(ethylamino)cyclohexyl)amino)-2-fluoro-N-(pyrimidin-4-yl)benzenesulfonamide]: under setting [2], the IC50 came to 127 nM.
As for `CN(C)[C@H]1CCCC[C@@H]1Nc1cc(F)c(S(=O)(=O)Nc2nccs2)cc1C1CCC1` [Example 91, 5-cyclobutyl-4-(((1S,2S)-2-(dimethylamino)cyclohexyl)amino)-2-fluoro-N-(thiazol-2-yl)benzenesulfonamide], under setting [2], the IC50 amounted to 13 nM.
Same read-out and setting: the result for `CN(CCO)[C@H]1CCCC[C@@H]1Nc1cc(F)c(S(=O)(=O)Nc2nccs2)cc1C1CC1` [Example 56, 5-cyclopropyl-2-fluoro-4-(((1S,2S)-2-((2-hydroxyethyl)(methyl)amino)cyclohexyl)amino)-N-(thiazol-2-yl)benzenesulfonamide hydrochloride] reads 3.46 nM.
